Here are results for 16 compounds from patent US6462171B1, “Peptides and pharmaceutical compositions thereof for treatment of disorders or diseases associated with abnormal protein folding into amyloid or amyloid-like deposits” (New York University, priority 1995, dated 2002).

“And” between values parts separate entries of the source, which are not always exact repeats. Equal values may be shown once. Read-outs that look alike come from different tables or passages of the source.

Series [1] deals with Aβ1-40. Put plainly: Thioflavine T fluorometric assay of amyloid formation by Aβ1-40. It is filed as biochemical. The note with it: for % of amyloid Aβ1-40: amyloid remaining, 30 μg Aβ with 10-fold molar excess of peptide, 2 days, room temperature, 0.1M tris pH 7.6, Aβ alone = 100; for amyloid formed, as % of the amyloid detectable in the absence of inhibitor: 24 h, Aβ 1 mg/ml.

In the next series the target is Aβ1-42 (Homo sapiens, UniProt P05067). Put plainly: Thioflavine T fluorometric assay of amyloid formation by Aβ1-42. It is filed as biochemical. The note with it: for % of amyloid Aβ1-42: amyloid remaining, 30 μg Aβ with 10-fold molar excess of peptide, 2 days, room temperature, 0.1M tris pH 7.6, Aβ alone = 100.
A short description of series [2]: Aggregation of the peptide incubated alone. The class given is physicochemical. The settings on record: for amyloid-like material formed by the peptide alone, electron microscopy: 6 days, same concentration as with Aβ. As to the method:
Based on these criteria, an 11 amino acid peptide, called inhibitor of Aβ fibrillogenesis peptide (iAβ) was designed, which has a low probability of adopting a β-sheet conformation due to the presence of proline residues (FIG. 9). The circular dichroism spectrum of iAβ in aqueous solution was typical of unordered structures (FIG. 10). Samples of iAβ at different concentrations as well as samples incubated for several days have similar spectra (FIG. 10).
The inhibition of fibril formation and the dissolution of preformed fibrils by iAβ was also analyzed by negative-staining electron microscopy (FIGS. 15a -f). Aβ1-40 (2 mg/ml) preincubated for 6 days at 37° C. formed typical 8-10 nm unbranched fibrils (Castano et al., biochem. Biophys. Res. Commun. 141:782-789, 1986) (FIG. 15a).

For series [3], the system named is Aβ1-40. Put plainly: Negative-staining electron microscopy of Aβ1-40 fibril formation and dissolution. The class given is biochemical. The settings on record: for effect on Aβ1-40 fibril formation by electron microscopy: Aβ1-40 2 mg/ml, 40-fold excess from the start, 6 days, 37° C.
In the next series the target is PrP106-126 (Homo sapiens, UniProt P04156). The settings on record: same concentration as iPrP-12aa.
For series [4] the following is noted: Kisilevsky et al., 1995; cited from earlier work.
The conditions of series [5]: background art; cited from earlier work.
Series [6] concerns amyloid A (SEQ ID NO: 13). Put plainly: Fibril formation by the amyloidogenic peptide of amyloid A. The note with it: 1 mg/ml, 24 hours, molar ratio 1:5 or 1:20. The class given is biochemical. The protocol: (§1) FIG. 8 is a bar graph showing the effect of anti-amyloid peptide 1 on the amyloid formation by Aβ and of peptides derived from the amyloidogenic sequence of gelsolin amyloid and amyloid A. Either β or the fifteen amino acid peptides containing the amyloidogenic sequence of gelsolin amyloid (SEQ ID NO: 12) and amyloid A (SEQ ID NO: 13) were incubated in a concentration of 1 mg/ml for 24 hours without and with anti-amyloid peptide 1 in a molar ratio of 1:5 or 1:20.

The subject of series [7] is gelsolin amyloid (SEQ ID NO: 12). In words: Fibril formation by the amyloidogenic peptide of gelsolin amyloid. The class given is biochemical. The note with it: 1 mg/ml, 24 hours, molar ratio 1:5 or 1:20. As to the method:
as §1

The target of series [8] is T1, Aβ (Homo sapiens, UniProt P05067). In words: Redissolution of preformed Aβ fibrils by anti-amyloid peptide 1. The class given is biochemical. The note with it: molar ratio 1:50 (Aβ:anti-amyloid peptide 1), 15 minutes to 24 hours.
The target of series [9] is T1, Aβ. In words: Aβ amyloid fibril formation in vitro (Aβ variant not named). The class given is biochemical. The note with it: 50-fold molar excess over soluble amyloid monomers.
For series [10], the target named is Aβ with heparan-sulfate proteoglycan (Homo sapiens, UniProt P05067). Put plainly: Heparan-sulfate proteoglycan-induced Aβ fibrillogenesis. The class given is biochemical. The settings on record: preliminary experiments.
Series [11] relates to Aβ1-40. Put plainly: Aβ-iAβ binding by quenching of intrinsic Tyr10 fluorescence of Aβ.
Series [12] concerns the target T2, Aβ1-40 with human plasma apolipoprotein E (Homo sapiens, UniProt P05067).
T2 construct: 30 μg of Aβ1-40 were incubated with or without 2.4 μg of human plasma apolipoprotein E; made in house; host or cells: Aβ1-40: chemical solid-phase synthesis
Put plainly: Promotion of Aβ fibrillogenesis induced by apolipoprotein E, thioflavine T assay. It is filed as biochemical. The settings on record: 30 μg Aβ1-40, 2.4 μg apoE, 1:10 (Aβ:iAβ), 24 h, room temperature. The protocol: Samples of Aβ alone or Aβ/apoE were incubated also with 1:10 (Aβ:iAβ) of the inhibitor. All the incubations were performed for 24 h at room temperature. Amyloid formation was evaluated by the thioflavine T fluorometric assay. The average of two different experiments is shown.

Another series concerns the target Aβ1-40 fibrils (Homo sapiens, UniProt P05067). Put plainly: Dissolution of preformed Aβ1-40 fibrils, fluorometric quantitation. The class given is biochemical.
Series [13] relates to amyloid-A (AA) deposition. Put plainly: Experimental murine model of amyloid-A amyloidosis (AEF and silver nitrate), amyloid in spleen. The class given is in vivo, BALB/c mice.
The next series concerns the target Aβ1-42 fibrils (Homo sapiens, UniProt P05067). In words: Dissolution of preformed Aβ1-42 fibrils, fluorometric quantitation. It is filed as biochemical. The note with it: 40-fold molar excess of iAβ, 24 h incubation.

Aβ1-42, sequence (P05067 18-42): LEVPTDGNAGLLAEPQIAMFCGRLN
Aβ1-40, sequence (P05067 18-40): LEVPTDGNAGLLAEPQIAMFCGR
T1 sequence (P05067 672-711 limits assumed): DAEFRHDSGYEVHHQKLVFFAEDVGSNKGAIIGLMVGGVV
Aβ1-40 fibrils, sequence (P05067 672-711): as the sequence (P05067 672-711 limits assumed) above
Aβ with heparan-sulfate proteoglycan, sequence (P05067 672-711 limits assumed): as above

Take “iAβ2: seven amino acid residue shorter derivative of iAβ (LPFFPVD)”: the “% of amyloid Aβ1-40” value with Aβ1-40 [1] turned out to be 36.7 ± 4.8%. Moreover, in the series with Aβ1-42, the “% of amyloid Aβ1-42” value is on record as 61.3 ± 3.0%.
Regarding “control peptide: 12 residue non-related control peptide (VHVSEEGTEPEA) [reference compound]”, the “amyloid-like material formed by the peptide alone, electron microscopy” value in series [2] is recorded as “formed no amyloid-like material”. In addition, the “effect on Aβ1-40 fibril formation by electron microscopy” value with Aβ1-40 [3] was “did not produce any effect”. In the series on Aβ1-40 [1] (FIGS. 12 and 13), the “effect on amyloid formation by Aβ1-40” value is “did not alter amyloid formation”. Also, the “effect on amyloid formation by Aβ1-42” value in the series with Aβ1-42 (FIG. 12) was “did not alter amyloid formation”.
As to “iAβ1: shorter derivative of iAβ (RDLPFFPVD)”, in the series on Aβ1-40 [1], the “% of amyloid Aβ1-40” value was 55.2 ± 2.1%. In the series with Aβ1-42, the “% of amyloid Aβ1-42” value amounted to 85.7 ± 11.6%.
The corresponding values for “Leu Val Phe Phe Ala [Aβ17-21, reference compound]” are 89.2 ± 2.7% and 92.3 ± 3.4%.
Consider “iAβ3: shorter derivative of iAβ; valine inserted into the sequence of SEQ ID NO:18 (LPFFVD)”, for which the “% of amyloid Aβ1-40” value with Aβ1-40 [1] is 90.1 ± 1.3%. In addition, the “% of amyloid Aβ1-42” value in the series with Aβ1-42 stood at 87.1 ± 6.1%.
For “Aβ18-21: short Aβ fragment (VFFA) [reference compound]”, in the series with Aβ1-40 [1], the “% of amyloid Aβ1-40” value turned out to be 105 ± 3.2%. Also, the “% of amyloid Aβ1-42” value in the series with Aβ1-42 is 98.5 ± 5.3%.
Turning to “CP1: unrelated control peptide of 12 amino acids (VHVSEEGTEPA) [reference compound]”, the “effect on amyloid formation by PrP106-126” value with PrP106-126 is “No significant effect”. For the same compound, the “% of amyloid Aβ1-40” value in the series with Aβ1-40 [1] is 98.4 ± 1.2%. Also, in the series with Aβ1-42, the “% of amyloid Aβ1-42” value stood at 101.3 ± 1.9%.
In the case of “CP2: control peptide (GYLTVAAVFRG) [reference compound]”, in the series with Aβ1-40 [1], the “% of amyloid Aβ1-40” value worked out at 111.3 ± 4.1%. Moreover, in the series with Aβ1-42, the “% of amyloid Aβ1-42” value is given as 125.3 ± 3.9%.
Regarding “CP3: control peptide (PADVPLAPRAVD) [reference compound]”, the “% of amyloid Aβ1-40” value with Aβ1-40 [1] worked out at 87.7 ± 2.0%. Moreover, the “% of amyloid Aβ1-42” value with Aβ1-42 was found to be 94.4 ± 1.4%.
In the case of poly- (vinylsulfonate), the “toxicity” value in series [4] is “acutely toxic”.
Consider Pro-Phe-Phe [iAβ6], for which, in the series on Aβ1-40 [1], the “% of amyloid Aβ1-40” value turned out to be 108.1 ± 7.9%. Moreover, the “% of amyloid Aβ1-42” value at Aβ1-42 is 88.9 ± 2.6%.
With `COc1cccc2c1C(=O)c1c(O)c3c(c(O)c1C2=O)C[C@@](O)(C(=O)CO)C[C@@H]3O[C@H]1C[C@H](N)[C@H](I)[C@H](C)O1` [IDOX, Anthracycline 4′-iodo-4′-deoxy-doxorubicin], the “toxicity” value in [5] was “extremely toxic”.
With “iAβ4: five residue derivative of iAβ; proline substituted for valine of Aβ 17-21, aspartic acid at the end (LPFFD)”, the “% of amyloid Aβ1-40” value in the series on Aβ1-40 [1] was 28.7 ± 1.7%. For the same compound, the “% of amyloid Aβ1-42” value with Aβ1-42 is listed as 45.4 ± 0.6%.
“anti-amyloid peptide 1: 15-amino acid anti-amyloid peptide (SRGDLPFFPVPIGDS)”: the “inhibition of fibril formation of the amyloid-A peptide” value in [6] was “inhibits the fibril formation”. Also, the “inhibition of fibril formation of the gelsolin related amyloid peptide” value in series [7] was “inhibits the fibril formation”. Further, the “dissolution of preformed Aβ fibrils” value in the series with Aβ [8] is “Dissolution of preformed fibrils also occurred”. Besides, the “inhibition of amyloid fibril formation” value in the series with Aβ [9] is given as 90%.
Consider “iAβ: 11 amino acid peptide partially homologous to Aβ residues 17-21, with proline residues and charged ends (RDLPFFPVPID)”, for which the “effect on heparan-sulfate proteoglycan-induced Aβ fibrillogenesis” value in series [10] is recorded as “blocked”. Also, the “amyloid-like material formed by the peptide alone, electron microscopy” value in [2] is “formed no amyloid-like material”. Moreover, the “aggregation of the peptide” value in series [2] (even at high concentrations (4 mg/ml) or after more than 30 days of incubation) is on record as “did not aggregate”. For the same compound, in the series on Aβ1-40 [3], the “effect on Aβ1-40 fibril formation by electron microscopy” value is reported as “only amorphous aggregates were obtained”. Further, the “dissolution of preformed Aβ1-40 fibrils by electron microscopy” value with Aβ1-40 [3] (fibrils preformed 6 days at 37° C., then 2 days with 1:40 molar ratio Aβ:iAβ) is “almost completely dissolved”. For the same compound, the “maximum quenching of Aβ fluorescence, % of total fluorescence” value with Aβ1-40 [11] (at approximately 4 μM of iAβ, 25° C., 5 mM Tris pH 7.4) came to 12.6%. The Kd on Aβ1-40 [11] (non-linear regression of binding data to a rectangular hyperbola, read-out: relative dissociation constant) was found to be 75.9 ± 6.5 nM. The “effect on apo E-induced promotion of Aβ fibrillogenesis” value in [12] is recorded as “blocked the promotion of Aβ fibrillogenesis”. Also, the “incubation time to maximum level of fibril dissolution” value with Aβ1-40 fibrils (40-fold molar excess of iAβ (FIG. 14B), Aβ variant not stated) is 2 days. In addition, the “dissolution of preformed Aβ1-40 fibrils” value with Aβ1-40 fibrils (40-fold molar excess of iAβ, 24 h incubation) is “almost complete dissolution”. For the same compound, the “decrease of the area occupied by amyloid in the spleen versus animals treated without the inhibitor” value in series [13] (5 mg iAβ injected together with AEF after 24 h preincubation, 5 days) is on record as “approximately 86.4%”. In addition, in series [13] (AEF 100 μg preincubated 24 h with 5 mg peptide, sacrificed at 5 days, AEF/SN alone average 31.2), the “amyloid in spleen by image analysis, AEF/SN + iAβ, single animal” value is 4.35 and 3.68 and 5.32 and 3.67. The “amyloid in spleen by image analysis, AEF/SN + iAβ, Average ± SE” value in series [13] (four animals, AEF 100 μg preincubated 24 h with 5 mg peptide, 5 days, AEF/SN alone 31.2 ± 0.75) was determined as 4.26 ± 0.39. For the same compound, the “amyloid formed, as % of the amyloid detectable in the absence of inhibitor” value stood at 33.9% with Aβ1-40 [1] (5-fold molar excess of iAβ) and 13.7% with Aβ1-40 [1] (20-fold molar excess of iAβ). In addition, the “% of amyloid Aβ1-40” value in the series with Aβ1-40 [1] is recorded as 25.5 ± 0.7%. The compound further came in with an Aβ1-42 fibril reduction in the series with Aβ1-42 fibrils of 51%. In addition, the “inhibition of amyloid formation” value is 28.7% with Aβ1-42 (5-fold molar excess of iAβ over Aβ1-42, 24 h); 72.3% with Aβ1-42 (20-fold molar excess of iAβ over Aβ1-42, 24 h); 80.6% with Aβ1-42 (40-fold molar excess of iAβ over Aβ1-42, 24 h). Moreover, in the series with Aβ1-42, the “% of amyloid Aβ1-42” value is on record as 57.9 ± 1.3%.
On to iAβ5: shorter derivative of iAβ (LPFF), for which the “% of amyloid Aβ1-40” value in the series with Aβ1-40 [1] amounted to 92.1 ± 1.3%. For the same compound, the “% of amyloid Aβ1-42” value in the series with Aβ1-42 is on record as 82.4 ± 5.0%.
